Values of other authors, collected in patent US9370574B2, “Composite absorbable/biodegradable rings for controlled drug delivery” (Poly-Med, Inc., priority 2003, dated 2016).

Columns and labels:
[1] = system: cervical intraepithelial neoplasia (CIN); details: collagen sponge in cervical cap
[2] = system: Human Papillomavirus (HPV)-associated lesions of the vulva and vagina; details: biweekly doses of 5% cream for six months following ablative treatment
[3] = system: post-irradiation vaginal carcinoma in-situ; details: 20% 5-FU over monthly 5-day courses
bacterial vaginosis [4] = system: bacterial vaginosis
bacterial vaginosis [5] = details: 5 gm gel (0.75%) twice-daily for 5 days

In the case of `CC1=C(/C=C/C(C)=C/C=C/C(C)=C/C(=O)O)C(C)(C)CCC1` [RA, all-trans-retinoic acid], the “complete histologic regression of CIN II” value ([1]; locally applied daily for 4 days) is given as 43% and the “treatment effect in severe dysplasia (CIN III)” value ([1]; locally applied) is given as “No treatment effect”.
In the case of `O=c1[nH]cc(F)c(=O)[nH]1` [Type 5-FU, 5-flurouracil], the recurrences [2] is given as 13% and the initial complete response [3] is given as “seven of the eight”.
In the case of `Cc1ncc([N+](=O)[O-])n1CCO` [metronidazole], the “failure rate after one month, high dose” value (bacterial vaginosis [4]; high dose sponge (one gram once-daily for three days)) is given as 12%, the cure rate (bacterial vaginosis [4]; intravaginal sponges, 250 mg twice-daily two days or one gram once-daily three days, after one week) is given as 85% and the “failure rate after one month, low dose” value (bacterial vaginosis [4]; low dose sponge (250 mg twice-daily for two days)) is given as 42%. For the same compound, the clinical cure rate (bacterial vaginosis [5]; after 9 to 21 days) was 87% and the recurrence rate (bacterial vaginosis [5]; after one month) was 15%.
